The results in this text go back to patent US20260285801A1, “LIPID NANOPARTICLE FOR TARGETED DELIVERY OF THERAPEUTIC PAYLOADS” (Trustees of Tufts College, priority 2023, published 2026).

The nature of data set [1]: LNP size and polydispersity index by dynamic light scattering (Zetasizer Nano ZS). The class given is physicochemical. To be noted: LNP with mRNA payload formulated with the lipid; active lipid/Cholesterol/DOPC/DMG-PEG 16.8/4.0/2.0/1.0; Lipids:mRNA 25:1; PBS pH 7.4, 25° C. Here is the method:
(§1) RNA working solutions (0.134 mg/ml) were prepared in 25 mM sodium acetate buffer using DNase/RNase-free distilled water. Lipid stock solutions (10 mg/mL) were freshly prepared with active lipids or helper lipids (e.g., cholesterol, DOPC or DSPC, or ALC-0159) in ethanol. Reagents were mixed by vortexing and sonicating until the lipids were completely dissolved. A lipid mixture was first prepared by combining the active lipids (e.g., ionizable lipids of the present disclosure) and helper lipids into one vial and mixing thoroughly. Lipid nanoparticles were then formed by mixing the RNA working solution (0.134 mg/ml) and the lipid mixture at 3:1 volume ratio, either manually (for smaller scale) or by Precision Igniter microfluidic device. The formulation solution was transferred into a 300 kDa MWCO Float-A-Lyzer G2 Dialysis Device and dialyzed against at least 1000-folds volume of 50 mM Tris buffer overnight at 4° C. The LNP solution was sterilized with a 0.22 μm filter.
(§2) For LNP characterization, size and polydispersity index (PDI) were determined by dynamic light scattering using a Zetasizer Nano ZS. 10 μL of LNP suspension was transferred to a low-volume cuvette containing 900 μL of Ca^2+ and Mg^2+ free PBS at pH 7.4. Refractive index was set to […] and temperature was set to 25° C. Encapsulation efficiency (EE %) was measured using a fluorescence plate-based assay employing the Ribogreen reagent (Invitrogen) as per PNI Ribogreen assay protocol 16. This assay measures the quantity of mRNA in samples with intact LNPs to determine the quantity of unencapsulated RNA as well as in LNP samples disrupted by triton X-100 to measure the total RNA. EE % is calculated as the difference between the total RNA and the unencapsulated RNA divided by the total RNA.

Data set [2] is described as follows: Encapsulation efficiency and mRNA quantity by Ribogreen fluorescence plate assay. The class given is physicochemical. To be noted: LNP with mRNA payload formulated with the lipid, 16.8/4.0/2.0/1.0, Lipids:mRNA 25:1; for EE %: (total RNA - unencapsulated RNA)/total RNA. On the procedure:
as §1, §2

In the case of `CCCCCCCCCC(CC)OC(=O)OCCOC(=O)CCN(CCCN(C)CCCN(CCC(=O)OCCOC(=O)OC(CC)CCCCCCCCC)CCC(=O)OCCOC(=O)OC(CC)CCCCCCCCC)CCC(=O)OCCOC(=O)OC(CC)CCCCCCCCC` (centres unmarked) [Lipid L0659], in data set [1], the PDI came to 0.1 and the “Size (nm)” value is reported as 104.3 nm. Moreover, in data set [2], the “[mRNA] Ug/ml” value came out at 69.6 Ug/ml and the EE % is 96.2%.
Turning to `CCCCCCC(CCCC)COC(=O)OCCOC(=O)CCN(CCCN(CCO)CCCN(CCC(=O)OCCOC(=O)OCC(CCCC)CCCCCC)CCC(=O)OCCOC(=O)OCC(CCCC)CCCCCC)CCC(=O)OCCOC(=O)OCC(CCCC)CCCCCC` (centres unmarked) [Lipid L0665], in data set [1], the PDI is reported as 0.16 and the “Size (nm)” value is listed as 107.6 nm. Also, in data set [2], the “[mRNA] Ug/ml” value came out at 65.8 Ug/ml and the EE % came out at 97.2%.
In the case of `CCCCCCCCC(CCC)OC(=O)OCCOC(=O)CCN(CCC(=O)OCCOC(=O)OC(CCC)CCCCCCCC)CCN(C)CCN(CCC(=O)OCCOC(=O)OC(CCC)CCCCCCCC)CCC(=O)OCCOC(=O)OC(CCC)CCCCCCCC` (centres unmarked) [Lipid L0638], in data set [1], the PDI is reported as 0.22 and the “Size (nm)” value turned out to be 121.5 nm. In data set [2], the “[mRNA] Ug/ml” value turned out to be 65.1 Ug/ml and the EE % is 95.7%.
In the same order, the values of `CCC(C)CCCCCOC(=O)CCN(CCCN(C)CCCN(CCC(=O)OCCCCCC(C)CC)CCC(=O)OCCCCCC(C)CC)CCC(=O)OCCCCCC(C)CC` (centres unmarked) [Lipid L0630] are 0.102, 121.9 nm, 74.99 Ug/ml and 60.74%.
In the same order, the values of `CCCCCCC(CCCC)COC(=O)NCCNC(=O)CCN(CCCN(C)CCCN(CCC(=O)OCCNC(=O)OCC(CCCC)CCCCCC)CCC(=O)OCCNC(=O)OCC(CCCC)CCCCCC)CCC(=O)NCCNC(=O)OCC(CCCC)CCCCCC` (centres unmarked) [Lipid L0744] are 0.118, 97 nm, 74 Ug/ml and 95.5%.
In the same order, the values of `CCC(C)CCCCCOC(=O)CCN(CCC(=O)OCCCCCC(C)CC)CCN(C)CCN(CCC(=O)OCCCCCC(C)CC)CCC(=O)OCCCCCC(C)CC` (centres unmarked) [Lipid L0631] are 0.105, 122.2 nm, 88.88 Ug/ml and 45.59%.
Turning to `CC(C)CCCCCCCCSSCCOC(=O)CCN(CCCN(C)CCCN(CCC(=O)OCCSSCCCCCCCCC(C)C)CCC(=O)OCCSSCCCCCCCCC(C)C)CCC(=O)OCCSSCCCCCCCCC(C)C` [Lipid L0813], in data set [1], the PDI is on record as 0.107 and the “Size (nm)” value is recorded as 183 nm. In data set [2], the “[mRNA] Ug/ml” value turned out to be 96.7 Ug/ml and the EE % worked out at 84%.
In the same order, the values of `CC/C=C\CCCCOC(=O)CCN(CCCN(C)CCCN(CCC(=O)OCCOC(=O)OCC(CCCC)CCCCCC)CCC(=O)OCCOC(=O)OCC(CCCC)CCCCCC)CCC(=O)OCCOC(=O)OCC(CCCC)CCCCCC` (centres unmarked) [Lipid L0830] are 0.105, 125.1 nm, 91 Ug/ml and 48%.
The matching figures for `CCCCCCCCC(CCC)OC(=O)OCCOC(=O)CCN(CCCN(C)CCCN(CCC(=O)OCCOC(=O)OC(CCC)CCCCCCCC)CCC(=O)OCCOC(=O)OC(CCC)CCCCCCCC)CCC(=O)OCCOC(=O)OC(CCC)CCCCCCCC` (centres unmarked) [Lipid L0637]: 0.34, 186.1 nm, 66.8 Ug/ml and 94%.
The matching figures for `CCCC/C=C\CCOC(=O)CCN(CCCN(C)CCCN(CCC(=O)OCC/C=C\CCCC)CCC(=O)OCC/C=C\CCCC)CCC(=O)OCC/C=C\CCCC` [Lipid L0826]: 0.082, 141 nm, 95.2 Ug/ml and 39%.
Regarding `CCCCCCCC(CCCCCC)OC(=O)OCCOC(=O)CCN(CCCN(C)CCCN(CCC(=O)OCCOC(=O)OC(CCCCCC)CCCCCCC)CCC(=O)OCCOC(=O)OC(CCCCCC)CCCCCCC)CCC(=O)OCCOC(=O)OC(CCCCCC)CCCCCCC` (centres unmarked) [Lipid L0654], in data set [1], the PDI amounted to 0.1 and the “Size (nm)” value worked out at 119.4 nm. In data set [2], the “[mRNA] Ug/ml” value is listed as 65.6 Ug/ml and the EE % stood at 90.6%.
For `CC(C)CCCCCCSSCCOC(=O)CCN(CCCN(C)CCCN(CCC(=O)OCCSSCCCCCCC(C)C)CCC(=O)OCCSSCCCCCCC(C)C)CCC(=O)OCCSSCCCCCCC(C)C` [Lipid L0642], in data set [1], the PDI was 0.124 and the “Size (nm)” value was 186.4 nm. For the same compound, in data set [2], the “[mRNA] Ug/ml” value was found to be 99.9 Ug/ml and the EE % is on record as 84.5%.
For the compound `CCCCCCC(CCCC)COC(=O)OCCOC(=O)CCN(CCCN(C)CCCN(CCC(=O)OCCOC(=O)OCC(CCCC)CCCCCC)CCC(=O)OCCOC(=O)OCC(CCCC)CCCCCC)CCC(=O)OCCOC(=O)OCC(CCCC)CCCCCC` (centres unmarked) [Lipid L0088], in data set [1], the PDI is 0.087 and the “Size (nm)” value was determined as 153.9 nm. In data set [2], the “[mRNA] Ug/ml” value is 69.7 Ug/ml and the EE % worked out at 85.2%.
The matching figures for `CCCCCCC(CCCC)CNC(=O)SCCOC(=O)CCN(CCCN(C)CCCN(CCC(=O)OCCSC(=O)NCC(CCCC)CCCCCC)CCC(=O)OCCSC(=O)NCC(CCCC)CCCCCC)CCC(=O)OCCSC(=O)NCC(CCCC)CCCCCC` (centres unmarked) [Lipid L0550]: 0.14, 121 nm, 61.1 Ug/ml and 84.3%.
In the same order, the values of `CCCCCCC(CCCC)COC(=O)OCCOC(=O)CCN(CCCN(CCCNC(=O)OC(C)(C)C)CCCN(CCC(=O)OCCOC(=O)OCC(CCCC)CCCCCC)CCC(=O)OCCOC(=O)OCC(CCCC)CCCCCC)CCC(=O)OCCOC(=O)OCC(CCCC)CCCCCC` (centres unmarked) [Lipid L0668] are 0.11, 134.7 nm, 67.1 Ug/ml and 97%.
For the compound `CC/C=C\CCCC[Se]CCOC(=O)CCN(CCCN(C)CCCN(CCC(=O)OCC[Se]CCCC/C=C\CC)CCC(=O)OCC[Se]CCCC/C=C\CC)CCC(=O)OCC[Se]CCCC/C=C\CC` [Lipid L0825], in data set [1], the PDI amounted to 0.099 and the “Size (nm)” value stood at 118.7 nm. For the same compound, in data set [2], the “[mRNA] Ug/ml” value was 91.2 Ug/ml and the EE % stood at 62%.
The matching figures for `CCCCCCC(CCCC)COC(=O)OCCOC(=O)CCN(CCCN(CCCN(CCC(=O)OCCOC(=O)OCC(CCCC)CCCCCC)CCC(=O)OCCOC(=O)OCC(CCCC)CCCCCC)CCCN1CCN(C)CC1)CCC(=O)OCCOC(=O)OCC(CCCC)CCCCCC` (centres unmarked) [Lipid L0674]: 0.22, 124.4 nm, 71.22 Ug/ml and 98.92%.
The matching figures for `CC/C=C\CCCCOC(=O)CCN(CCCN(C)CCCN(CCC(=O)OCCCC/C=C\CC)CCC(=O)OCCOC(=O)OCC(CCCC)CCCCCC)CCC(=O)OCCCC/C=C\CC` (centres unmarked) [Lipid L0829]: 0.13, 98.3 nm, 78 Ug/ml and 92%.
The matching figures for `CCCCCCCCCC(CC)OC(=O)OCCOC(=O)CCN(CCCN(C)CCCN(CCC(=O)OCCOC(=O)OC(CC)CCCCCCCCC)CCC(=O)OCCOC(=O)OC(CC)CCCCCCCCC)CCC(=O)OCCOC(=O)OC(CC)CCCCCCCCC` (centres unmarked) [Lipid L0660]: 0.11, 122.2 nm, 71 Ug/ml and 97%.
For the compound `CC(C)CCCCCCCCSSCCOC(=O)CCN(CCCN(C)CCCN(CCC(=O)OCCSSCCCCCCCCC(C)C)CCC(=O)OCCSSCCCCCCCCC(C)C)CCC(=O)OCCSSCCCCCCCCC(C)C` [Lipid L0814], in data set [1], the PDI is 0.093 and the “Size (nm)” value is reported as 178.8 nm. In addition, in data set [2], the “[mRNA] Ug/ml” value stood at 90.2 Ug/ml and the EE % was 70%.
The matching figures for `CC(C)CCCCCCSSCCOC(=O)CCN(CCCn1ccnc1)CCC(=O)OCCSSCCCCCCC(C)C` [Lipid L0645]: 0.106, 161 nm, 90 Ug/ml and 74.2%.
As to `CCCCCCC(CCCC)CNC(=O)NCCNC(=O)CCN(CCCN(C)CCCN(CCC(=O)NCCNC(=O)NCC(CCCC)CCCCCC)CCC(=O)NCCNC(=O)NCC(CCCC)CCCCCC)CCC(=O)NCCNC(=O)NCC(CCCC)CCCCCC` (centres unmarked) [Lipid L0775], in data set [1], the PDI is recorded as 0.863 and the “Size (nm)” value is recorded as 5911 nm.
